Laboratory results: patent publication US20230167118A1, “DEGRADATION OF BRUTON'S TYROSINE KINASE (BTK) BY CONJUGATION OF BTK INIDBITORS WITH E3 LIGASE LIGAND AND METHODS OF USE” (BEIGENE, LTD., priority 2020, published 2023)

Tests used:
BTK = target: T1, BTK (Homo sapiens, UniProt Q06187); experiment: Cell Degradation: BTK degradation in TMD-8 cells, HTRF assay; format: cell-based; conditions: 6 h treatment, IC50 (DC50) of BTK degradation
T1 construct: High control=Cell group with added DMSO and without compound, indicating microplate readings without BTK degradation; endogenous in cells; host or cells: TMD-8 cells
T1 sequence (Q06187 whole entry): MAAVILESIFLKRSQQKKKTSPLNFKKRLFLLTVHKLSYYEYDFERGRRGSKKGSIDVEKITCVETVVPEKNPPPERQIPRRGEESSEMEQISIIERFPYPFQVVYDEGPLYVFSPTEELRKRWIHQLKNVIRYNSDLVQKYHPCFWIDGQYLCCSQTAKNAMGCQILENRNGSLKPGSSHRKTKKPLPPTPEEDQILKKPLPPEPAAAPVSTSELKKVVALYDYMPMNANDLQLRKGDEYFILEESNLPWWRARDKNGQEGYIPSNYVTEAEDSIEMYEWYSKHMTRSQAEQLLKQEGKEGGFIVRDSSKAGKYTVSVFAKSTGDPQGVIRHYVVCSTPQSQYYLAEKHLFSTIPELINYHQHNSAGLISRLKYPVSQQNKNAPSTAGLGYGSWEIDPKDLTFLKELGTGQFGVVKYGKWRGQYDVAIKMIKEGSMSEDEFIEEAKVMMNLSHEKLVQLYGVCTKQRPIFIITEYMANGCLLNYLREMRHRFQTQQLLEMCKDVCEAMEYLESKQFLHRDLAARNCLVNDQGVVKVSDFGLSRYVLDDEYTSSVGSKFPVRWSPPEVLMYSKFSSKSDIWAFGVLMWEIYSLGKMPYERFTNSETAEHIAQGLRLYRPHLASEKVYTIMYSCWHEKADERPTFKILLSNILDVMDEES
Outline: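 BTK levels read by HTRF (665 vs 620 nm) in lysates of TMD-8 cells after 6 h compound exposure (eight doses, 6-fold steps, 0.2% DMSO). Percent degradation relative to controls; four-parameter curve fitting gave DC50, with Dmax the top degradation.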

HEK-293 cells = experiment: HEK-293 Cytotoxicity Assay (CellTiter-Glo); format: cell-based; conditions: Homo sapiens, HEK293, 72 h incubation, CellTiter-Glo luminescence
Outline: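 Four-parameter fit of % inhibition gives IC50, from CellTiter-Glo luminescent viability read-out. Cells exposed for 72 h to an 8-point, 4-fold series at 0.2% DMSO.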

DC50 (BTK) [nM]	SMILES	IC50 (HEK-293 cells) [µM]
3	Cc1cc(-c2ncnc3[nH]c(-c4ccc(N5CCN(CC6CCN(c7ccc(N8CCC(=O)NC8=O)cc7)CC6)C[C@H]5C)nc4)cc23)ccc1[C@@H](C)NC(=O)c1nc(C(C)(C)C)no1 [Example 105, 3-(tert-butyl)-N-((R)-1-(4-(6-(6-((R)-4-((1-(4-(2,4-dioxotetrahydropyrimidin-1(2H)-yl)phenyl)piperidin-4-yl)methyl)-2-methylpiperazin-1-yl)pyridin-3-yl)-7H-pyrrolo[2,3-d]pyrimidin-4-yl)-2-methylphenyl)ethyl)-1,2,4-oxadiazole-5-carboxamide]	> 10
4.6	Cc1cc(-c2ncnc3[nH]c(-c4ccc(N5CCN(CC6CCN(c7ccc(N8CCC(=O)NC8=O)cc7)CC6)C[C@@H]5C)nc4)cc23)ccc1[C@@H](C)NC(=O)c1nc(C(C)(C)C)no1 [Example 106, 3-(tert-butyl)-N-((R)-1-(4-(6-(6-((S)-4-((1-(4-(2,4-dioxotetrahydropyrimidin-1(2H)-yl)phenyl)piperidin-4-yl)methyl)-2-methylpiperazin-1-yl)pyridin-3-yl)-7H-pyrrolo[2,3-d]pyrimidin-4-yl)-2-methylphenyl)ethyl)-1,2,4-oxadiazole-5-carboxamide]	> 10
1.7	Cc1cc(-c2ncnc3[nH]c(-c4ccc(N5CCN(CC6CCN(c7ccc(N8CCC(=O)NC8=O)cc7)CC6)CC5)cc4)cc23)c(F)cc1[C@@H](C)NC(=O)c1noc(C(C)(C)C)n1 [Example 107, (R)-5-(tert-butyl)-N-(1-(4-(6-(4-(4-((1-(4-(2,4-dioxotetrahydropyrimidin-1(2H)-yl)phenyl)piperidin-4-yl)methyl)piperazin-1-yl)phenyl)-7H-pyrrolo[2,3-d]pyrimidin-4-yl)-5-fluoro-2-methylphenyl)ethyl)-1 2,4-oxadiazole-3-carboxamide]	> 10
0.35	C[C@@H](NC(=O)c1noc(C(C)(C)C)n1)c1ccc(-c2ncnc3[nH]c(-c4ccc(N5CCN(CC6CCN(c7ccc(N8CCC(=O)NC8=O)cc7)CC6)CC5)cn4)cc23)cc1F [Example 108, (R)-5-(tert-butyl)-N-(1-(4-(6-(5-(4-((1-(4-(2,4-dioxotetrahydropyrimidin-1(2H)-yl)phenyl)piperidin-4-yl)methyl)piperazin-1-yl)pyridin-2-yl)-7H-pyrrolo[2,3-d]pyrimidin-4-yl)-2-fluorophenyl)ethyl)-1,2,4-oxadiazole-3-carboxamide]	> 10
0.72	CC(C)(C)c1noc(C(=O)NCc2ccc(-c3ncnc4[nH]c(-c5ccc(N6CCN(CC7CCN(c8ccc(N9CCC(=O)NC9=O)cc8)CC7)CC6)cc5)cc34)cc2CO)n1 [Example 109, 3-(tert-butyl)-N-(4-(6-(4-(4-((1-(4-(2,4-dioxotetrahydropyrimidin-1(2H)-yl)phenyl)piperidin-4-yl)methyl)piperazin-1-yl)phenyl)-7H-pyrrolo[2,3-d]pyrimidin-4-yl)-2-(hydroxymethyl)benzyl)-1,2,4-oxadiazole-5-carboxamide]	> 10
> 2000	Cc1cc(-c2ncnc3[nH]c(-c4ccc(N5CCN(CC6CCN(c7ccc(N8CCC(=O)N(C)C8=O)cc7)CC6)CC5)cn4)cc23)ccc1[C@@H](C)NC(=O)c1nc(C(C)(C)C)no1 [Example 110, (R)-3-(tert-butyl)-N-(1-(2-methyl-4-(6-(5-(4-((1-(4-(3-methyl-2,4-dioxotetrahydropyrimidin-1(2H)-yl)phenyl)piperidin-4-yl)methyl)piperazin-1-yl)pyridin-2-yl)-7H-pyrrolo[2,3-d]pyrimidin-4-yl)phenyl)ethyl)-1,2,4-oxadiazole-5-carboxamide]	> 10
2.3	Cc1cc(-c2ncnc3[nH]c(-c4ccc(N5CCN(CC6CCN(c7ccc(N8CCC(=O)NC8=O)c(F)c7)CC6)CC5)cc4)cc23)ccc1[C@@H](C)NC(=O)c1nc(C(C)(C)C)no1 [Example 111, (R)-3-(tert-butyl)-N-(1-(4-(6-(4-(4-((1-(4-(2,4-dioxotetrahydropyrimidin-1(2H)-yl)-3-fluorophenyl)piperidin-4-yl)methyl)piperazin-1-yl)phenyl)-7H-pyrrolo[2,3-d]pyrimidin-4-yl)-2-methylpheyl)ethyl)-1,2,4-oxadiazole-5-carboxamide]	> 10
0.76	Cc1cc(-c2ncnc3[nH]c(-c4ccc(N5CCN(CC6CCN(c7ccc(N8CCC(=O)NC8=O)c(C)c7)CC6)CC5)c(C)c4)nc23)ccc1[C@@H](C)NC(=O)c1nc(C(C)(C)C)no1 [Example 112, (R)-3-(tert-butyl)-N-(1-(4-(8-(4-(4-((1-(4-(2,4-dioxotetrahydropyrimidin-1(2H)-yl)-3-methylphenyl)piperidin-4-yl)methyl)piperazin-1-yl)-3-methylphenyl)-9H-purin-6-yl)-2-methylphenyl)ethyl)-1,2,4-oxadiazole-5-carboxamide]	> 10
0.97	COc1cc(-c2nc3c(-c4ccc([C@@H](C)NC(=O)c5nc(C(C)(C)C)no5)c(C)c4)ncnc3[nH]2)ccc1N1CCN(CC2CCN(c3ccc(N4CCC(=O)NC4=O)c(C)c3)CC2)CC1 [Example 113, (R)-3-(tert-butyl)-N-(1-(4-(8-(4-(4-((1-(4-(2,4-dioxotetrahydropyrimidin-1(2H)-yl)-3-methylphenyl)piperidin-4-yl)methyl)piperazin-1-yl)-3-methoxyphenyl)-9H-purin-6-yl)-2-methylphenyl)ethyl)-1,2,4-oxadiazole-5-carboxamide]	> 10
1.68	Cc1cc(N2CCN(CC3CCN(c4ccc(N5CCC(=O)NC5=O)c(C)c4)CC3)CC2)ccc1-c1nc2c(-c3ccc([C@@H](C)NC(=O)c4nc(C(C)(C)C)no4)c(C)c3)ncnc2[nH]1 [Example 114, (R)-3-(tert-butyl)-N-(1-(4-(8-(4-(4-((1-(4-(2,4-dioxotetrahydropyrimidin-1(2H)-yl)-3-methylphenyl)piperidin-4-yl)methyl)piperazin-1-yl)-2-methylphenyl)-9H-purin-6-yl)-2-methylphenyl)ethyl)-1,2,4-oxadiazole-5-carboxamide]	> 10
1.83	Cc1c([C@@H](C)NC(=O)c2noc(C(C)(C)C)n2)ccc(-c2ncnc3[nH]c(-c4ccc(N5CCN(CC6CCN(c7ccc(N8CCC(=O)NC8=O)cc7)CC6)CC5)cc4)cc23)c1F [Example 115, (R)-5-(tert-butyl)-N-(1-(4-(6-(4-(4-((1-(4-(2,4-dioxotetrahydropyrimidin-1(2H)-yl)phenyl)piperidin-4-yl)methyl)piperazin-1-yl)phenyl)-7H-pyrrolo[2,3-d]pyrimidin-4-yl)-3-fluoro-2-methylphenyl)ethyl)-1,2,4-oxadiazole-3-carboxamide]	> 10
2.28	Cc1cc(-c2ncnc3[nH]c(-c4cccc(N5CCN(CC6CCN(c7ccc(N8CCC(=O)NC8=O)cc7)CC6)CC5)c4)cc23)ccc1[C@@H](C)NC(=O)c1nc(C(C)(C)C)no1 [Example 116, (R)-3-(tert-butyl)-N-(1-(4-(6-(3-(4-((1-(4-(2,4-dioxotetrahydropyrimidin-1(2H)-yl)phenyl)piperidin-4-yl)methyl)piperazin-1-yl)phenyl)-7H-pyrrolo[2,3-d]pyrimidin-4-yl)-2-methylphenyl)ethyl)-1,2,4-oxadiazole-5-carboxamide]	> 10
3.72	Cc1cc(-c2ncnc3[nH]c(-c4ccc(N5CCN(CC6CCN(c7ccc(N8CCC(=O)NC8=O)cc7)CC6)CC5)nc4)cc23)ccc1[C@@H](C)NC(=O)c1cc(C(C)(C)C)on1 [Example 117, (R)-5-(tert-butyl)-N-(1-(4-(6-(6-(4-((1-(4-(2,4-dioxotetrahydropyrimidin-1(2H)-yl)phenyl)piperidin-4-yl)methyl)piperazin-1-yl)pyridin-3-yl)-7H-pyrrolo[2,3-d]pyrimidin-4-yl)-2-methylphenyl)ethyl)isoxazole-3-carboxamide]	> 10
0.5	C[C@@H](NC(=O)c1noc(C(C)(C)C)n1)c1ccc(-c2ncnc3[nH]c(-c4ccc(N5CCN(CC6CCN(c7ccc(N8CCC(=O)NC8=O)cc7)CC6)CC5)cc4)cc23)cc1CO [Example 118, (R)-5-(tert-butyl)-N-(1-(4-(6-(4-(4-((1-(4-(2,4-dioxotetrahydropyrimidin-1(2H)-yl)phenyl)piperidin-4-yl)methyl)piperazin-1-yl)phenyl)-7H-pyrrolo[2,3-d]pyrimidin-4-yl)-2-(hydroxymethyl)phenyl)ethyl)-1,2,4-oxadiazole-3-carboxamide]	> 10
1.2	Cc1cc(-c2ncnc3[nH]c(-c4ccc(N5CCN(CC6CCN(c7cccc(N8CCC(=O)NC8=O)c7)CC6)CC5)cn4)cc23)ccc1[C@@H](C)NC(=O)c1nc(C(C)(C)C)no1 [Example 119, (R)-3-(tert-butyl)-N-(1-(4-(6-(5-(4-((1-(3-(2,4-dioxotetrahydropyrimidin-1(2H)-yl)phenyl)piperidin-4-yl)methyl)piperazin-1-yl)pyridin-2-yl)-7H-pyrrolo[2,3-d]pyrimidin-4-yl)-2-methylphenyl)ethyl)-1,2,4-oxadiazole-5-carboxamide]	> 10
0.18	Cc1nn(C2CCN(CC3CCN(c4ccc(N5CCC(=O)NC5=O)cc4)CC3)CC2)c(C)c1-c1cc2c(-c3ccc([C@@H](C)NC(=O)c4noc(C(C)(C)C)n4)c(CO)c3)ncnc2[nH]1 [Example 120, (R)-5-(tert-butyl)-N-(1-(4-(6-(1-(1-((1-(4-(2,4-dioxotetrahydropyrimidin-1(2H)-yl)phenyl)piperidin-4-yl)methyl)piperidin-4-yl)-3,5-dimethyl-1H-pyrazol-4-yl)-7H-pyrrolo[2,3-d]pyrimidin-4-yl)-2-(hydroxymethyl)phenyl)ethyl)-1,2,4-oxadiazole-3-carboxamide]	> 10
